Experimental data from US12612389B2, “Benzofuran-based N-acylhydrazone derivative and pharmaceutical composition comprising same” (KOREA RESEARCH INSTITUTE OF BIOSCIENCE AND BIOTECHNOLOGY, priority 2019, dated 2026).
Read-outs that look alike come from different tables or passages of the source.

How the values were obtained:
[1] = Solubility test in administration solvent; assay type: physicochemical; details: 2.0 mg/mL; Solvent A 20%, Solvent B 20%, Solvent C 60% (dimethylacetamide/Cremophor EL/20% HPbCD)
Experimental: The test substances were accurately weighed and placed in a glass vial. Then, solvent A was added in an amount corresponding to 20% of the desired final solution volume, and the mixture was completely dissolved by treatment with a vortexer and sonication. Next, solvent B in an amount corresponding to 10% or 20% of the final solution volume was added and mixed well. […] Finally, the mixture was subjected to sonication for 30 seconds. The mixed solution was prepared and used immediately before administration in the experiment. • Solvent A: Dimethylacetamide produced by SigmaAldrich • Solvent B: Cremophor EL produced by SigmaAldrich • Solvent C: 20% HPbCD ((2-Hydroxypropyl)-β-cyclodextrin produced by SigmaAldrich) in deionized water

Stability test in plasma [2] = assay type: in vitro ADME; details: Rat plasma, 37° C.
Experimental: (§1) In order to test the stability (in vivo) of the Example compounds according to the present invention, the compounds of Examples 2, 3, 4, 8 and 15 were administered intravenously, and plasma concentrations over time were observed. In addition, procaine was used as a positive control. Plasma stability was measured three times by administering the test compound at a concentration of 5 mM to human, rat, or mouse plasma (90 μL) at 37° C. Results thereof are shown in Table below and FIGS. 3A to 3E.

Stability test in plasma [3] = assay type: in vitro ADME; set-up: Residue % (180 minutes elapsed), Mean: dose or concentration left out as unconfirmed; details: 37° C.
Experimental: as §1, with “of 5 mM” left out

HeLa CCL2 tumor = experiment: Anticancer effect test in human cervical cancer cell (HeLa CCL2) transplantation model; assay type: in vivo, BALB/C female nude mouse; details: 25 mg/kg intraperitoneally, p<0.001
Experimental: After thawing the human […] cancer cell line HeLa CCL2 that was stored frozen in liquid nitrogen, cell culture was performed. The cells were cultured for an appropriate period in a CO2 incubator (Forma, USA) at a temperature of 37° C. and a CO2 concentration of 5%.
On the last day of culture, all cancer cells were collected and counted, and the cell concentration was adjusted to 1×10^7 cells/mL using serum free media. The cell culture solution as adjusted above was injected subcutaneously into the axillary region between the shoulder blade and the chest wall in an amount of 0.3 mL (3×10^6 cells/mouse) per BALB/C female nude mouse (5 weeks old, Nara Biotech).
Immediately prior to administration, the compounds were dissolved in a mixture of DMAC (dimethylacetamide) 20%+Tween80 5%+20% HPbCD (2-hydroxypropyl-β-cyclodextrin) 75% at an appropriate concentration and used. The prepared substances were repeatedly administered intraperitoneally in an amount of 0.2 mL (10 mL/kg) per 20 g of a mouse according to the following administration schedule. • carrier, the compound of Example 4, the compound of Example 8, and the compound of Example 15 (25 mg/kg), 0-28 days 4.3. Confirmation of Change in Tumor Size
After cancer cell transplantation, the tumor size of each animal subject was measured a total of 11 times in 3 directions using a vernier caliper from when the mean tumor size reached 57.0 mm^3 until Day 28, and calculated by the formula of length×width×height/2.
In order to test the degree of toxicity upon repeated intraperitoneal administration of the Example compound to HeLa CCL2 cancer cell transplantation nude mice, general symptoms and body weight changes of the animal subjects were observed during the administration period.
On Day 28 after drug administration, blood was collected from the mouse ophthalmic veins in 2 hours post the last administration, and the mice were killed using CO2 gas. Images of the mice were taken, and the tumor was separated and weighed on an electronic scale. After taking the images, each tumor was divided in half and fixed in liquid nitrogen and formalin, respectively. On […] after drug administration, the HeLa CCL2 tumor was excised and weighed.

HeLa cells = experiment: Anti-proliferative activity test in HeLa cell line (MTT); assay type: cell-based; details: Homo sapiens, 48 h, grown for 2 days, mean of 2
Experimental: HeLa cells (American Type Culture Collection: ATCC, USA), a human cervical cancer cell line, were seeded in a 96-well plate at 3×10^3 cells/well, and the cells were then treated with compounds of Examples or Comparative Example according to the present invention and grown for 2 days. Then, MTT (3-(4,5-dimethylthiazol-2-yl)-2,5-diphenyltetrazolium bromide) reagent was added at 10 μL/well. After 2 hours, absorbance was measured at “OD 450” and statistical values were obtained using Prism™6 program. The data shown in Table below are mean values of results obtained by repeating the analysis twice.

[4] = Metabolic stability test in liver microsomes; assay type: in vitro ADME; details: 0.5 mg protein/mL, 37° C.
Experimental: (§2) The test compounds at a concentration of […] were administered in the presence or absence of NADPH (1 mM) to liver […] (0.5 mg protein/mL) of humans, rats and mice, and metabolic stability was tested at 37° C. for 30 minutes. In addition, buspirone was used as a positive control. Results thereof are shown in Table below and FIGS. 4A to 4E.

[5] = Pharmacokinetic (PK) test; assay type: in vivo, male ICR mice; details: for Vd: iv; for AUC(0-t): read-out: AUClast, Mean
Experimental: Pharmacokinetic (PK) parameters of the Example compounds according to the present invention were determined using male ICR mice as follows (n=3).
Pharmacokinetic (PK) parameters were measured by non-compartmental analysis of plasma concentration-time curves using Kinetica™ 4.4.1 (Thermo Fisher Scientific, USA). Results thereof are shown in Table below and FIGS. 5A to 5C. In Table below, “F” parameter was calculated using AUClast, “N/A” indicates the phrase not applicable, and “NC” indicates the phrase not calculated.

[6] = Stability in buffer (line of the metabolic stability test); assay type: in vitro ADME
Experimental: as §2

MCF7 = experiment: Anti-proliferative activity test in cancer cells exhibiting multidrug resistance (MTT), parent line; assay type: cell-based; details: Homo sapiens, 96 h, 4 days
Experimental: (§3) HeLa cells (American Type Culture Collection: ATCC, USA), a human cervical cancer cell line, were seeded in a 96-well plate at 3×10^3 cells/well, and the cells were then treated with compounds of Examples or Comparative Example according to the present invention and grown for 2 days. Then, MTT (3-(4,5-dimethylthiazol-2-yl)-2,5-diphenyltetrazolium bromide) reagent was added at 10 μL/well. […] The data shown in Table below are mean values of results obtained by repeating the analysis twice. Specifically, K562 and MCF7 (Bio Evaluation Center, Korea Research Institute of Bioscience and Biotechnology, Korea) and multidrug-resistant cell lines of each of these cell lines, i.e., K562/ADR and MCF7/ADR (Bio Evaluation Center, Korea Research Institute of Bioscience and Biotechnology, Korea), were cultured on microtiter plates (1-3×10^3 cells/well). […] The data shown in Table below are mean values of results obtained by repeating the analysis three times.

K562 = experiment: as above; assay type: cell-based; details: Homo sapiens, 96 h, 4 days
Experimental: as §3

K562/ADR = experiment: Anti-proliferative activity test in cancer cells exhibiting multidrug resistance (MTT); assay type: cell-based; details: for IC50: Homo sapiens, 96 h, K562/ADR (multidrug-resistant), 4 days, MTT; for Resistance Factor: ratio IC50 K562/ADR to IC50 K562
Experimental: as §3

MCF7/ADR = experiment: as above; assay type: cell-based; details: for IC50: Homo sapiens, NCI/ADR-RES, 96 h, MCF7/ADR (multidrug-resistant), 4 days, MTT; for Resistance Factor: ratio IC50 MCF7/ADR to IC50 MCF7
Experimental: as §3

[7] = male, ICR, mouse, plasma, Oral administration, 20 mg/kg, mice, n=3

## CCOCCn1c(Cl)c(/C=N/NC(=O)c2cc3cc(OC)ccc3o2)c2cc(OC)ccc21 [Example 15, (E)-N′-[(2-chloro-1-(2-ethoxyethyl)-5-methoxy-1H-indol-3-yl]methylene}-5-methoxybenzofuran-2-carbohydrazide]
[1]
  Solubility evaluation result: Soluble
Stability test in plasma [2]
  half-life at 5 mM: 134 min
Stability test in plasma [2]; 5 mM
  Residue % (180 minutes elapsed), Mean: 41.74%
Stability test in plasma [3]; Human plasma
  Residue % (180 minutes elapsed), Mean: 4.20%
  half-life at 5 mM: 160 min
Stability test in plasma [3]; Mouse plasma
  Residue % (180 minutes elapsed), Mean: 57.25%
  half-life at 5 mM: > 180 min
HeLa CCL2 tumor; 0-28 days, Day 28, tumor size
  tumor growth inhibition: 40.13%
HeLa CCL2 tumor; excised tumor
  reduction in tumor weight compared with solvent control: 26.2%
HeLa cells
  IC50: 123 nM
[4]; Human, +NADPH
  Residue (%) after culturing for 30 min: 7.94 ± 0.74%
[4]; Human, −NADPH
  Residue (%) after culturing for 30 min: 88.63 ± 1.61%
[4]; Mouse, +NADPH
  Residue (%) after culturing for 30 min: 4.82 ± 0.52%
[4]; Mouse, −NADPH
  Residue (%) after culturing for 30 min: 86.31 ± 1.72%
[4]; Rat, +NADPH
  Residue (%) after culturing for 30 min: 3.47 ± 0.25%
[4]; Rat, −NADPH
  Residue (%) after culturing for 30 min: 94.95 ± 1.93%
[5]; Oral 20 mg/kg vs intravenous 5 mg/kg, calculated using AUClast
  F, Mean: 0.3%
[5]; male, ICR, mouse, plasma, 5 mg/kg, Intravenous administration, 5 mg/kg, mice, n=3, read-out: Vss, Mean
  Vd: 0.71 L/kg
[5]; male, ICR, mouse, plasma, 5 mg/kg, Intravenous administration, 5 mg/kg, mice, n=3, read-out: Vz, Mean
  Vd: 1.37 L/kg
[5]; male, ICR, mouse, plasma, Intravenous administration, 5 mg/kg, mice, n=3, read-out: AUCinf, Mean
  AUC(0-inf): 1730 ng·h/mL
[5]; male, ICR, mouse, plasma, Intravenous administration, 5 mg/kg, mice, n=3
  AUC(0-t): 1720 ng·h/mL
[5]; male, ICR, mouse, plasma, Intravenous administration, 5 mg/kg, mice, n=3, read-out: CL, Mean (converted)
  clearance: 48.2 mL/min/kg
[5]; male, ICR, mouse, plasma, Intravenous administration, 5 mg/kg, mice, n=3, read-out: MRTinf, Mean
  MRT inf: 14.4 min
[5]; male, ICR, mouse, plasma, Intravenous administration, 5 mg/kg, mice, n=3, read-out: t1/2, Mean (converted)
  half-life: 19.8 min
[5]; [7]
  Cmax: 34.4 ng/mL
  Tmax: 15 min
  AUC(0-t): 18 ng·h/mL
[6]
  Residue (%) after culturing for 30 min: 91.02 ± 2.89%

## CC(=O)O[C@H]1C(=O)[C@@]2(C)[C@H]([C@H](OC(=O)c3ccccc3)[C@]3(O)C[C@H](OC(=O)[C@H](O)[C@@H](NC(=O)c4ccccc4)c4ccccc4)C(C)=C1C3(C)C)[C@]1(OC(C)=O)CO[C@@H]1C[C@@H]2O [Taxol, taxol]
MCF7
  IC50: 2.35 nM
K562
  IC50: 1.35 nM
K562/ADR
  IC50: 700 nM
  Resistance Factor: 519.6
MCF7/ADR
  IC50: 1030 nM
  Resistance Factor: 438.38

## CC[C@]1(O)C[C@@H]2CN(CCc3c([nH]c4ccccc34)[C@@](C(=O)OC)(c3cc4c(cc3OC)N(C)[C@H]3[C@@](O)(C(=O)OC)[C@H](OC(C)=O)[C@]5(CC)C=CCN6CC[C@]43[C@@H]65)C2)C1 [Vinblastine, vinblastine]
MCF7
  IC50: 5.28 nM
K562
  IC50: 17.1 nM
K562/ADR
  IC50: 268 nM
  Resistance Factor: 15.63
MCF7/ADR
  IC50: 95.9 nM
  Resistance Factor: 18.17
